Experimental data: patent publication US8557272B2, “Device for local and/or regional delivery employing liquid formulations of therapeutic agents” (Cordis Corporation, priority 2004, dated 2013)

Columns and labels:
[1] = Drug concentration in liquid formulations (liquid chromatography, HPLC assay); assay type: physicochemical
[2] = tested on: human coronary artery smooth muscle cells; assay: Anti-proliferative activity in non-synchronized cultured human coronary artery smooth muscle cells stimulated with two percent fetal bovine serum; assay type: cell-based; settings: agent added to cells treated with rapamycin
Source text: The multiple curves represent various concentrations of mycophenolic acid ranging from zero to one thousand nanomolar concentrations.
FIG. 58 illustrates, in graphical format, the anti-proliferative activity of cladribine in non-synchronized cultured human coronary artery smooth muscle cells stimulated with two percent fetal bovine serum.
The multiple curves represent various concentrations of cladribine ranging from zero to nine hundred nanomolar concentrations.

[3] = tested on: human coronary artery smooth muscle cells; assay: Antiproliferative effects of PX867 on cultured human coronary artery smooth muscle cells; assay type: cell-based
Source text: A PI3 kinase inhibitor can affect restinosis when administered by local or systemic delivery alone or in combination with sirolimus. FIGS. 87 and 88 illustrate the antiproliferative effects of PX867 on cultured human coronary artery smooth muscle cells alone (FIG. 87) or in combination with sirolimus (FIG. 88). […] Curve 8702 illustrates the percent inhibition for various concentrations. In FIG. 88, the six curves 8802, 8804, 8806, 8808, 8810 and 8812 represent various concentrations of PX867 with various concentrations of sirolimus. […] More specifically, curve 8812 illustrates the percent inhibition for a 240 nM PX-867 concentration. […] This may be compared to curve 8804 which represents a 15 nM PX-867 concentration. As one can see, the percent inhibition increases as the concentration of sirolimus increases. Accordingly, a potent PI3 kinase inhibitor, such as PX-867, can improve the inhibition of coronary artery smooth muscle cell proliferation either as a stand alone treatment or via combination with another restenotic agent, such as sirolimus.

[4] = tested on: human coronary artery smooth muscle cells; assay: Anti-proliferative activity in synchronized cultured human coronary artery smooth muscle cells stimulated with two percent fetal bovine serum; assay type: cell-based; settings: for effect of the added agent on the anti-proliferative rapamycin dose response curve: agent added to cells treated with rapamycin
Source text: (§1) The multiple curves represent various concentrations of topotecan ranging from zero to three hundred nanomolar concentrations.
(§2) The multiple curves represent various concentrations of etoposide ranging from zero to eight hundred nanomolar concentrations.
The multiple curves represent various concentrations of Panzem® ranging from zero to 100 micromolar concentrations.

[5] = tested on: human coronary artery smooth muscle cell; assay: MTS assay of Panzem®; assay type: cell-based; settings: concentrations up to 30,000.00 nanomolar
Source text: Typically, a control is utilized to determine baseline toxicity.

[6] = Porcine drug elution PK study of the dual drug eluting coating; assay type: in vivo; settings: after eight (8) days of implantation; single-layer configuration of FIG. 83
Source text: Another critical parameter for the performance of the thrombus resistance of a device coated with cilostazol is the duration of the drug release from the coating. This is of particular significance in the two weeks after device implantation. In the porcine drug elution PK studies of the dual drug eluting coating, both cilostazol and sirolius were slowly released from the coating, resulting in a sustained drug release profile. The purpose of the porcine PK study is to assess the local pharmacokinetics of a drug eluting stent at a given implantation time. Normally three stents are implanted in three different coronary arteries in a pig for a given time point and then retrieved for total drug recovery analysis. The stents are retrieved at predetermined time points; namely, 1, 3 and 8 days. The stents are extracted and the total amount of drug remaining on the stents is determined by analysis utilizing HPLC (high performance liquid chromatography) for total drug amount. The difference between the original amount of drug on the stent and the amount of drug retrieved at a given time represents the amount of drug released in that period. The continuous release of drug into surrounding arterial tissue is what prevents the neointimal growth and restenosis in the coronary artery. A normal plot represents the percentage of total drug released (%, y-axis) vs. time of implantation (day, x-axis). […]

[7] = In vitro release of sirolimus and cilostazol from stent coating; assay type: physicochemical; settings: single-layer configuration of FIG. 83
[8] = Cell viability assay (cytotoxicity); assay type: cell-based
Source text: as §1, §2

[9] = Protocol: The concentrations are determined by liquid chromatography and are presented as weight by volume figures.
In making the first formulation, 100 mg of paclitaxel is added to 400 μl of ethanol in a pre-weighed 20 ml scintillation vial. The mixture of paclitaxel and ethanol is vortexed and heated in a 60 degree C. bath for ten minutes. Once the drug is completely solubilized, 20 ml of PEG 400 is then added to make the final paclitaxel concentration 5 mg/ml. […] In a separate experiment, a series of 20 ml scintillation vials containing Vitamin E TPGS are heated or warmed up in a 50 degree C. water bath for ten minutes. Concurrently, distilled water is also warmed in a 50 degree C. water bath. Once the Vitamin E TPGS was melted in each vial, the distilled water is added into the Vitamin E TPGS vials and vortexed for one minute and left to stand in the water bath for two hours. The final concentrations of Vitamin E TPGS in water were one, five and fifteen percent. The paclitaxel stock solution (5 mg/ml) described herein was then mixed with the Vitamin E TPGS solutions to make the final paclitaxel formulations.

tumor cell lines = settings: Woo et al. 2002; cited from earlier work
[10] = tested on: human coronary artery smooth muscle cell; assay: Inhibition of human coronary artery smooth muscle cell proliferation by trichostatin A, cell culture; assay type: cell-based; settings: in vitro cell culture; read-out: anti-proliferative IC50
Source text: FIG. 51 is a graph of the inhibition of coronary artery smooth muscle cells by trichostatin A in a cell culture study.

CO[C@H]1C[C@@H]2CC[C@@H](C)[C@@](O)(O2)C(=O)C(=O)N2CCCC[C@H]2C(=O)O[C@H]([C@H](C)C[C@@H]2CC[C@@H](OC(=O)C(C)(CO)CO)[C@H](OC)C2)CC(=O)[C@H](C)/C=C(\C)[C@@H](O)[C@@H](OC)C(=O)[C@H](C)C[C@H](C)/C=C/C=C/C=C/1C [CCI-779]
concentration in the final solution (HPLC assay) ([1]; ethanol, Vitamin E TPGS and water, ethanol less than two percent): 15000 µg/mL

Nc1nc(Cl)nc2c1ncn2[C@H]1C[C@H](O)[C@@H](CO)O1 [Cladribine, 2-chlorodeoxyadenosine]
effect of the added agent on the anti-proliferative rapamycin dose response curve [2]: potentiate the anti-proliferative activity of rapamycin

COC[C@H]1OC(=O)/C(=C\N2CCCC2)C2=C(O)C(=O)C3=C([C@H](OC(C)=O)C[C@]4(C)C(=O)CC[C@@H]34)[C@]21C [PX-867]
inhibition of coronary artery smooth muscle cell proliferation ([3]; PX867 alone, concentration of about 10^−6): close to one hundred percent inhibition
combination effect with sirolimus on percent inhibition ([3]; PX-867 15-240 nM with various concentrations of sirolimus): strong synergistic effect between PX-867 and sirolimus

COc1cc2c(cc1O)CC[C@@H]1[C@@H]2CC[C@]2(C)[C@@H](O)CC[C@@H]12 [Panzem®, 2-methoxyestradiol]
effect of the added agent on the anti-proliferative rapamycin dose response curve [4]: increases the percent of inhibition of rapamycin alone
inhibition of human coronary artery smooth muscle cell proliferation in vitro ([4]; agent alone): extremely effective inhibitor
human coronary artery smooth muscle cell survival (MTS assay) [5]: do not reduce human coronary artery smooth muscle cell survival

O=C1CCc2cc(OCCCCc3nnnn3C3CCCCC3)ccc2N1 [cilostazol, 6[4-(1-cyclohexyl-1H-tetrazol-5-yl)-butoxy]-3,4-dihydro-2-(1H)-quinolinone]
drug remaining in the drug coating [6]: ~80%
in vitro release from the coating [7]: ~35%

COc1cc([C@@H]2c3cc4c(cc3[C@@H](O[C@@H]3O[C@@H]5CO[C@@H](C)O[C@H]5[C@H](O)[C@H]3O)[C@H]3COC(=O)[C@H]23)OCO4)cc(OC)c1O [etoposide]
cytotoxicity in cell viability assay ([8]; at concentrations up to ten micromolar): non-cytotoxic
effect of the added agent on the anti-proliferative rapamycin dose response curve [2]: potentiate the anti-proliferative activity of rapamycin

COc1c(C)c2c(c(O)c1C/C=C(\C)CCC(=O)O)C(=O)OC2 [mycophenolic acid]
effect of the added agent on the anti-proliferative rapamycin dose response curve [2]: potentiates the anti-proliferative activity of rapamycin

CC(=O)O[C@H]1C(=O)[C@@]2(C)[C@H]([C@H](OC(=O)c3ccccc3)[C@]3(O)C[C@H](OC(=O)[C@H](O)[C@@H](NC(=O)c4ccccc4)c4ccccc4)C(C)=C1C3(C)C)[C@]1(OC(C)=O)CO[C@@H]1C[C@@H]2O [paclitaxel]
concentration of paclitaxel in a true liquid formulation [9]: up to 2.5 mg/ml
concentration relative to the solubility of paclitaxel in water [9]: about 1000 fold

CO[C@H]1C[C@@H]2CC[C@@H](C)[C@@](O)(O2)C(=O)C(=O)N2CCCC[C@H]2C(=O)O[C@H]([C@H](C)C[C@@H]2CC[C@@H](O)[C@H](OC)C2)CC(=O)[C@H](C)/C=C(\C)[C@@H](O)[C@@H](OC)C(=O)[C@H](C)C[C@H](C)/C=C/C=C/C=C/1C [rapamycin]
concentration relative to the solubility of sirolimus in water ([1]; 4 mg/ml liquid formulation with PEG 200): about four hundred to about one thousand times higher
drug remaining in the drug coating [6]: ~80%

CC[C@@]1(O)C(=O)OCc2c1cc1n(c2=O)Cc2cc3c(CN(C)C)c(O)ccc3nc2-1 [topotecan]
cytotoxicity in cell viability assay ([8]; at concentrations up to one micromolar): non-cytotoxic
effect of the added agent on the anti-proliferative rapamycin dose response curve [4]: potentiate the anti-proliferative activity of rapamycin

CC(/C=C/C(=O)NO)=C\[C@@H](C)C(=O)c1ccc(N(C)C)cc1 [trichostatin A]
anti-proliferative IC50's (tumor cell lines): low nM range
IC50 [10]: ~6 nM
